What was measured:
Experiment in all cases: Other kinases, single-concentration inhibition (Table 3)
Type in all cases: biochemical
MSK2(h) = target: T1, MSK2(h) (Homo sapiens, UniProt O75676)
T1 construct: purchased Caliper Life Sciences
In short: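 Each kinase was preincubated with a single compound concentration, and the reaction was then initiated with a labelled peptide substrate/ATP mix. After 90 min at 25 °C, reactions were quenched with EDTA and conversion was read by mobility shift.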

ALK(h) = target: T2, ALK(h) (Homo sapiens, UniProt Q9UM73)
T2 construct: purchased Caliper Life Sciences
T2 sequence (Q9UM73 19-1620): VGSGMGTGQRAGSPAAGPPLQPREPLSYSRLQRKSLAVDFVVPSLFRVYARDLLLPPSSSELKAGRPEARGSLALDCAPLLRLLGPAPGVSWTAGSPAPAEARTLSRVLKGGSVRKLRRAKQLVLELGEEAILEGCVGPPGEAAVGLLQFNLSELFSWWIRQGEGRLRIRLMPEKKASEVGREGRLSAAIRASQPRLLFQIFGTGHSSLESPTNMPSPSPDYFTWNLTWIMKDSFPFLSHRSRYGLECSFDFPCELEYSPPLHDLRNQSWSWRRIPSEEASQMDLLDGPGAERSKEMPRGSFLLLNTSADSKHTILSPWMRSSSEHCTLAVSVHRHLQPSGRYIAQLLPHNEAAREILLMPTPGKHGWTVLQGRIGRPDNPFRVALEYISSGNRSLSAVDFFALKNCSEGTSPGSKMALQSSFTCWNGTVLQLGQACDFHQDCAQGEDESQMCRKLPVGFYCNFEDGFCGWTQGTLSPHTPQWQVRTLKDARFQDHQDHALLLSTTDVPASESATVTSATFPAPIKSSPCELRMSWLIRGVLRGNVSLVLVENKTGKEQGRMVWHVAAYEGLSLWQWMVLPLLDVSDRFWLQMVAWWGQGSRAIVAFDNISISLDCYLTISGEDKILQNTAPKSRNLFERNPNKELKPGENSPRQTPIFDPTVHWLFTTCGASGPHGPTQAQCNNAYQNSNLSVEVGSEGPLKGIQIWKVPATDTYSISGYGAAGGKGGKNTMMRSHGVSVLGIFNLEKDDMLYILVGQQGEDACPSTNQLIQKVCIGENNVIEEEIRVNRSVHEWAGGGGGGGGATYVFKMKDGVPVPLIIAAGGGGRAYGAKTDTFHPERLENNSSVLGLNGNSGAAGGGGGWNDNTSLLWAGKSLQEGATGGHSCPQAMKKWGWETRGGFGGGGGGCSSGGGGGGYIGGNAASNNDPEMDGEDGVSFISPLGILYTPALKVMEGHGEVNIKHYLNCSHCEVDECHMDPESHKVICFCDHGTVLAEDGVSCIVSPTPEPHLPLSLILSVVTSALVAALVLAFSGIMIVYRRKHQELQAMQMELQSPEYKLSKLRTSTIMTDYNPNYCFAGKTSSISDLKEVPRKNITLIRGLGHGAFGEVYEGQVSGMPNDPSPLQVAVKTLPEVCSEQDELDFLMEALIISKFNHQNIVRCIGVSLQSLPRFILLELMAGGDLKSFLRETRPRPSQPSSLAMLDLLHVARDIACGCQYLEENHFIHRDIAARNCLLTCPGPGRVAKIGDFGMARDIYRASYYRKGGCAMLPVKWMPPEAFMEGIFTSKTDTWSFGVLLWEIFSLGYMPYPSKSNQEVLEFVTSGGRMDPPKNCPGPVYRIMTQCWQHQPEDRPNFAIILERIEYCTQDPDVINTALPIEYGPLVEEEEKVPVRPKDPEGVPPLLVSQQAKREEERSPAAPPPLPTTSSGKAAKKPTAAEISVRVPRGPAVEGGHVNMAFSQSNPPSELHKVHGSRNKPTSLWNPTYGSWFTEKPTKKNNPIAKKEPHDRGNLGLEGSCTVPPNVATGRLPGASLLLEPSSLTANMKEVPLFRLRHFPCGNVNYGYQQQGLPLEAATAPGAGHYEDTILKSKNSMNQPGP
In short: (§1)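 Quench: 10 mM EDTA in 100 mM HEPES pH 7.5, 0.015% Brij-35, after 90 min at 25 °C. Before that, compound (single concentration) and kinase reacted with labelled peptide/ATP. Product/substrate peak ratio gave activity, expressed as % inhibition.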

IRAK4(h) = target: T3, IRAK4(h) (Homo sapiens, UniProt Q9NWZ3)
T3 construct: purchased Caliper Life Sciences
T3 sequence (Q9NWZ3 1-460): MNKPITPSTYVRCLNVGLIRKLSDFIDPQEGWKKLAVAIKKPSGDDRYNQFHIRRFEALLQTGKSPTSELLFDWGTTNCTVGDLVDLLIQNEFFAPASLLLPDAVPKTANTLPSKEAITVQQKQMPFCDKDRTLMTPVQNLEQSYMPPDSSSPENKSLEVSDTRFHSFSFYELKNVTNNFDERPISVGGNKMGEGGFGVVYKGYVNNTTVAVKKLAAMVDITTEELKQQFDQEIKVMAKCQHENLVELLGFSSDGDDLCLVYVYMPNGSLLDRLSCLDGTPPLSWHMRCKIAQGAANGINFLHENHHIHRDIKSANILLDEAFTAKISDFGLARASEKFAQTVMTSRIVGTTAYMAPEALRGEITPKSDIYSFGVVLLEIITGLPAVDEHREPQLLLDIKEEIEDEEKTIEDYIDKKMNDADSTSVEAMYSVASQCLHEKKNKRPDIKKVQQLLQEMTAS
In short: as §1

ZIPK(h) = target: T4, ZIPK(h) (Homo sapiens, UniProt O43293)
T4 construct: purchased Caliper Life Sciences
T4 sequence (O43293 whole entry): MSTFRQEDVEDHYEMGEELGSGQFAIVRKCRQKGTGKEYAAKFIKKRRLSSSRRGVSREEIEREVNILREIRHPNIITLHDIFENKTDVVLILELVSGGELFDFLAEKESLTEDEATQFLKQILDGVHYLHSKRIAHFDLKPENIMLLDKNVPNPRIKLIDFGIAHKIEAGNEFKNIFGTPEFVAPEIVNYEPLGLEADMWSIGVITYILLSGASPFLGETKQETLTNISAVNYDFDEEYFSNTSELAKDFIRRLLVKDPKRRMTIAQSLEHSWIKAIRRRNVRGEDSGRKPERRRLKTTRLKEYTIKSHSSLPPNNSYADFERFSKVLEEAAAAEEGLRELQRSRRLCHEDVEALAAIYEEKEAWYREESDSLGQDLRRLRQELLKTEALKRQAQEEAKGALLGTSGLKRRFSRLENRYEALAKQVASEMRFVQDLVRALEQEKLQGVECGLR
In short: as §1

KDR(h) = target: T5, KDR(h) (Homo sapiens, UniProt P35968)
T5 construct: purchased Caliper Life Sciences
T5 sequence (P35968 20-1356): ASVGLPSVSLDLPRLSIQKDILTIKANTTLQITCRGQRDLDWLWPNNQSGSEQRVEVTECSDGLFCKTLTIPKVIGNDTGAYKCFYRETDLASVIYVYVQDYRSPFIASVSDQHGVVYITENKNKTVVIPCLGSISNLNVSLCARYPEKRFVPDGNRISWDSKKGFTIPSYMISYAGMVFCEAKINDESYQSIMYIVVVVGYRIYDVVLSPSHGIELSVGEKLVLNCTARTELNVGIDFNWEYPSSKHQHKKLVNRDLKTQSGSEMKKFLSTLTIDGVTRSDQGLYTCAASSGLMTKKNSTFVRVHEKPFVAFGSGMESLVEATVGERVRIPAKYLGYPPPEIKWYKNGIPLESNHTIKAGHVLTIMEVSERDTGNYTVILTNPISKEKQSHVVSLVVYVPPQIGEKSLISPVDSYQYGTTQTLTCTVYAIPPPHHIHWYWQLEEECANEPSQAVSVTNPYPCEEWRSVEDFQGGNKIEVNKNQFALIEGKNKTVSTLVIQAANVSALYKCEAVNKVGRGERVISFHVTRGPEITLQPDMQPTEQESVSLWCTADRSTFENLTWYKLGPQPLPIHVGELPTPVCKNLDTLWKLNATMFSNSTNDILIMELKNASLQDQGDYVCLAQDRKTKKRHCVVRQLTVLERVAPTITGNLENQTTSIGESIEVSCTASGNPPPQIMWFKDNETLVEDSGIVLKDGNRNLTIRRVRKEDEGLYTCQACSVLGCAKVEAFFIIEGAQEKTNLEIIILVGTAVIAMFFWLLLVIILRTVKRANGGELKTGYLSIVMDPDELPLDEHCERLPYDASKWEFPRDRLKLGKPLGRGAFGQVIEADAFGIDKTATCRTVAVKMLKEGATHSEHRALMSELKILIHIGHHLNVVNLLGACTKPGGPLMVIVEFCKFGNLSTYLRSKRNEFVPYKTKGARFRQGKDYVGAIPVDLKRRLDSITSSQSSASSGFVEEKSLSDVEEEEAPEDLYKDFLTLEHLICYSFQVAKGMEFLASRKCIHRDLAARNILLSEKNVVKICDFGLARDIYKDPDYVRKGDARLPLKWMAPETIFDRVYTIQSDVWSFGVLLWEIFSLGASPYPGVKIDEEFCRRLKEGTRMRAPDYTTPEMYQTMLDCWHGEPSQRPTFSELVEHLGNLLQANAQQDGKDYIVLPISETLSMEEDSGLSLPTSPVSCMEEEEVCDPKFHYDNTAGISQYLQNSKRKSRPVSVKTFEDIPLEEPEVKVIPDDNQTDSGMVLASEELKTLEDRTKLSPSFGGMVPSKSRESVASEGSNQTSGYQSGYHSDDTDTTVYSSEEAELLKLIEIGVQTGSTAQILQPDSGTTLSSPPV
In short: as §1

PDK1(h) = target: T6, PDK1(h) (Homo sapiens, UniProt O15530)
T6 construct: purchased Caliper Life Sciences
T6 sequence (O15530 1-556): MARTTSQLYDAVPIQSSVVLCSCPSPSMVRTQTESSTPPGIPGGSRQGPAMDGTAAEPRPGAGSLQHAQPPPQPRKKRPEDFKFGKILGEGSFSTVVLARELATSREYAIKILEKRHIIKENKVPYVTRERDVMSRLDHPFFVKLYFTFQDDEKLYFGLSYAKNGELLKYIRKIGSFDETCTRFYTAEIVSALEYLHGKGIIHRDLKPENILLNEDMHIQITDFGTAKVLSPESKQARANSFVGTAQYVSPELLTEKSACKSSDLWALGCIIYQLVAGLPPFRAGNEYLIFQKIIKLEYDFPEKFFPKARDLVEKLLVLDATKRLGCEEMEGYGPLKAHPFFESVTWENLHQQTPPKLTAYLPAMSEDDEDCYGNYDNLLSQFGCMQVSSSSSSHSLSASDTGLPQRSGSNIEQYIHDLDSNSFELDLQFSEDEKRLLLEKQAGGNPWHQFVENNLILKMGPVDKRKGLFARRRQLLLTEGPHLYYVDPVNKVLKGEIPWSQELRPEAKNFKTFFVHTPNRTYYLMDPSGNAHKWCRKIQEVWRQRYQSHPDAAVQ
In short: as §1

Axl(h) = target: T7, Axl(h) (Homo sapiens, UniProt P30530)
T7 construct: purchased Caliper Life Sciences
T7 sequence (P30530 26-894): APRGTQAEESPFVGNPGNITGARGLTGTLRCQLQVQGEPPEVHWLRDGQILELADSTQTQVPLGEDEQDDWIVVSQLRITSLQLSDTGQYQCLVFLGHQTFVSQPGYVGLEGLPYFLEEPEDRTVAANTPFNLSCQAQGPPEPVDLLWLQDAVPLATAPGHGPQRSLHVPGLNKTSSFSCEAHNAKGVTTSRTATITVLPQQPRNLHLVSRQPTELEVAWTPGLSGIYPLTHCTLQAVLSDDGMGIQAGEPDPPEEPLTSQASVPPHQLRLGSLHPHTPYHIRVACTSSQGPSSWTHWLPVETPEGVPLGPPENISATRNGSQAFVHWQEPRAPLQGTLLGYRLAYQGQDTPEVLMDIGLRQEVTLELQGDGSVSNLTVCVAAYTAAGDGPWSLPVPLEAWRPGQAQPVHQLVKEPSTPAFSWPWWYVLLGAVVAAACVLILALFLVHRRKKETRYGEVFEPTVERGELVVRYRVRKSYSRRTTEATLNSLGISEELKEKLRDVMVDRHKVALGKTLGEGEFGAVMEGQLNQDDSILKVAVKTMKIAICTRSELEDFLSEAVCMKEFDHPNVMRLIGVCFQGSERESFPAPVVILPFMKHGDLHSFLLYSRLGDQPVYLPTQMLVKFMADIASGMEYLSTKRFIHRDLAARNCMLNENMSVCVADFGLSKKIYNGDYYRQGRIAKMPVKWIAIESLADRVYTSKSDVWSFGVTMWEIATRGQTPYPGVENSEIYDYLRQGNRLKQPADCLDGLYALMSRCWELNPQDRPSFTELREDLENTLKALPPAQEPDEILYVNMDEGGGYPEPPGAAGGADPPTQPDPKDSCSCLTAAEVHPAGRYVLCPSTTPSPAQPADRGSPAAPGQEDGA
In short: as §1

PKCα(h) = target: T8, PKCα(h) (Homo sapiens, UniProt P17252)
T8 construct: purchased Caliper Life Sciences
In short: as §1

T1 sequence (O75676 whole entry): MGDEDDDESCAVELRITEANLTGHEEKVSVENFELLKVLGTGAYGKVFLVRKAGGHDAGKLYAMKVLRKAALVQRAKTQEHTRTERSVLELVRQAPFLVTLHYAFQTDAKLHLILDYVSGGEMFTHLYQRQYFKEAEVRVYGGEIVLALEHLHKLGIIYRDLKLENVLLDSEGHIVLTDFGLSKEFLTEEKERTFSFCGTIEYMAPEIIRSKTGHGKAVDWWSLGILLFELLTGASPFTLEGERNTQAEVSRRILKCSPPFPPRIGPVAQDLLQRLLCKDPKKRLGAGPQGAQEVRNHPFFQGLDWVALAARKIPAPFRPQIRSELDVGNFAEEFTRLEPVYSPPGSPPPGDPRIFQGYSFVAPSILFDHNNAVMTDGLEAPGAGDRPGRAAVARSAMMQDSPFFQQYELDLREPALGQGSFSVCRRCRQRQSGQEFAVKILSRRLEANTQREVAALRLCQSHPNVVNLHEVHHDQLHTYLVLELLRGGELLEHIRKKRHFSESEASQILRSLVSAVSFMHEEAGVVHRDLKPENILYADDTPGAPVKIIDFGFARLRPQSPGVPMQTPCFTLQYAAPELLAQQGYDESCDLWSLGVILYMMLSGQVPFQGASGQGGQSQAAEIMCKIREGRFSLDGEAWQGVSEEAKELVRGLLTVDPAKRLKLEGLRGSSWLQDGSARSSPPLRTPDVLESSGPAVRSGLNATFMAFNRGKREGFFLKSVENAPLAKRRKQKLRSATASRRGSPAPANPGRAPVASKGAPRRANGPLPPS

SMILES | % inhibition MSK2(h) (MSK2(h); 1 μM) [%] | % inhibition ALK(h) (ALK(h); 1 μM) [%] | % inhibition IRAK4(h) (IRAK4(h); 1 μM) [%] | % inhibition ZIPK(h) (ZIPK(h); 1 μM) [%] | % inhibition KDR(h) (KDR(h); 1 μM) [%] | % inhibition PDK1(h) (PDK1(h); 1 μM) [%] | % inhibition Axl(h) (Axl(h); 1 μM) [%] | % inhibition PKCα(h) (PKCα(h); 1 μM) [%] | % inhibition MSK2(h) (MSK2(h); 10 μM) [%] | % inhibition ALK(h) (ALK(h); 10 μM) [%] | % inhibition IRAK4(h) (IRAK4(h); 10 μM) [%] | % inhibition ZIPK(h) (ZIPK(h); 10 μM) [%] | % inhibition KDR(h) (KDR(h); 10 μM) [%] | % inhibition PDK1(h) (PDK1(h); 10 μM) [%] | % inhibition Axl(h) (Axl(h); 10 μM) [%] | % inhibition PKCα(h) (PKCα(h); 10 μM) [%]
NC(=O)[C@H]1[C@H]2C[C@H]3[C@H]1Nc1nc(ncc1F)Nc1cccc(c1)CSS[C@@H]3C2 [Example 10] | 3 | 8 | 3 | 118 | 32 | 96 | 10 | 90 |  |  |  |  |  |  |  | 
CN1CCN(c2ccc3cc2NC(=O)CS[C@@H]2C[C@@H]4C[C@H]2[C@@H](Nc2nc(ncc2F)N3)[C@H]4C(N)=O)CC1 [Example 24] | 81 | 32 | 19 | 109 | 8 | 108 | 48 | 103 |  |  |  |  |  |  |  | 
NC(=O)[C@H]1[C@H]2C[C@H]3[C@H]1Nc1nc(ncc1F)Nc1cccc(c1)C(=O)CS[C@@H]3C2 [Example 11] | 89 | 81 | 90 | 84 | 101 | 98 | 105 | 94 |  |  |  |  |  |  |  | 
NC(=O)[C@H]1[C@H]2C[C@H]3[C@H]1Nc1nc(ncc1F)Nc1cccc(c1)OCCS[C@@H]3C2 [Example 20] | 48 | 60 | 12 | 93 | 8 | 80 | 40 | 107 |  |  |  |  |  |  |  | 
CC[C@@H]1C[C@@H]2CCCOc3cccc(c3)Nc3ncc(F)c(n3)N[C@H]2[C@H]1C(N)=O (single isomer, unassigned) [Example 5] | 56 | 97 | 81 | 110 | 70 | 92 | 96 | 84 |  |  |  |  |  |  |  | 
O=C(O)[C@H]1[C@H]2C[C@H]3[C@H]1Nc1nc(ncc1F)Nc1cccc(c1)OCCS[C@@H]3C2 [Example 21] |  |  |  |  |  |  |  |  | 75 | 57 | 31 | 86 | 10 | 78 | 66 | 91
CN1CCN(c2ccc3cc2OCCS[C@@H]2C[C@@H]4C[C@H]2[C@@H](Nc2nc(ncc2F)N3)[C@H]4C(N)=O)CC1 [Example 22] | 60 | 59 | 52 | 95 | 41 | 112 | 40 | 100 |  |  |  |  |  |  |  | 
CC[C@@H]1C[C@@H]2/C=C\COc3cccc(c3)Nc3ncc(F)c(n3)N[C@H]2[C@H]1C(N)=O (single isomer, unassigned) [Example 6] | 60 | 101 | 52 | 112 | 62 | 90 | 78 | 90 |  |  |  |  |  |  |  | 
C=C[C@@H]1C[C@@H]2/C=C/COc3cccc(c3)Nc3ncc(F)c(n3)N[C@H]2[C@H]1C(N)=O (single isomer, unassigned) [Example 3] | 136 | 86 | 82 | 118 | 95 | 102 | 107 | 70 |  |  |  |  |  |  |  | 
NC(=O)[C@H]1[C@H]2C[C@H]3[C@H]1Nc1nc(ncc1F)Nc1cccc(c1)NC(=O)CS[C@@H]3C2 [Example 27] | 65 | 77 | 12 | 97 | 7 | 86 | 63 | 102 |  |  |  |  |  |  |  | 
N#Cc1ccc2cc1NC(=O)CS[C@@H]1C[C@@H]3C[C@H]1[C@@H](Nc1nc(ncc1F)N2)[C@H]3C(N)=O [Example 26] | 2 | 88 | 43 | 106 | 8 | 88 | 55 | 81 |  |  |  |  |  |  |  | 

Source: US8815872B2, “Macrocyclics pyrimidines as aurora kinase inhibitors” (Merck Patent GmbH, priority 2008, dated 2014)
